Consider five molecules from publication PMC5524698, “A cell-based, quantitative and isoform-specific assay for exchange proteins directly activated by cAMP” (Scientific Reports, 2017).

What is called AC50 is the concentration at which the activity in the assay is half-maximal. Broadly, the IC50 is the concentration that inhibits the measured activity by half.

The target of assay [1] is T1, EPAC1 (Homo sapiens, UniProt O95398).
T1 construct: HEK293 cell lines stably expressing Flag-tagged Rap1A and full-length EPAC1 or EPAC2 are proposed; expressed in transfected cells
T1 sequence (O95398 1-923): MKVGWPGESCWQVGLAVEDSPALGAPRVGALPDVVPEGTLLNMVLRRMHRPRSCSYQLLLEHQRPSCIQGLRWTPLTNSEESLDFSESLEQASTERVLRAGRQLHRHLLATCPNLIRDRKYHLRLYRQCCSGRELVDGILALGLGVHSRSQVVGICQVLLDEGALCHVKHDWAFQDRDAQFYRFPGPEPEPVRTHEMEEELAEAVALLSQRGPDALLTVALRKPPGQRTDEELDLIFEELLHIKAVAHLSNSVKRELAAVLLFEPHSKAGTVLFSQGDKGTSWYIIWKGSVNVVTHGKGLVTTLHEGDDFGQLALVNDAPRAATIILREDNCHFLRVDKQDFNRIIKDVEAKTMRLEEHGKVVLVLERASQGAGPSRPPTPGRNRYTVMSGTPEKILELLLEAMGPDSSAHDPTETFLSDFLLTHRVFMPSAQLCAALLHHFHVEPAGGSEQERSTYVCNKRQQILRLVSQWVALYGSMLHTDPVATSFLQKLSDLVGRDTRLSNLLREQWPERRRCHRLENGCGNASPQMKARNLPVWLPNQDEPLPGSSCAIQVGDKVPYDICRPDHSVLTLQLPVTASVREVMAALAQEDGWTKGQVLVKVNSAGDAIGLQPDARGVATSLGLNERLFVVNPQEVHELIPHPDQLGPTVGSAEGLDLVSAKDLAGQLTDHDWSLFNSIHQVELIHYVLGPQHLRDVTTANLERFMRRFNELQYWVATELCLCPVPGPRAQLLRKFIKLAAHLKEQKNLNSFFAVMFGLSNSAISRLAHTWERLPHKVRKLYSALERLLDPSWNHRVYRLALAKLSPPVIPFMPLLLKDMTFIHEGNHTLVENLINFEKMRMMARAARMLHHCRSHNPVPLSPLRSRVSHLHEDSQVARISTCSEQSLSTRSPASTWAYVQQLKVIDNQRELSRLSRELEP
The assay is described as follows: Cellular Rap1 assay (ELISA for Rap1-GTP) in HEK293/hEPAC1/Flag-Rap1 cells. The class given is cell-based. To be noted: for AC50: 10 min stimulation, read-out: apparent half maximal activation constant (AC50), Rap1-GTP levels. The text has this:
To develop a cell-based, isoform-specific EPAC activation assay, HEK293 cell lines stably expressing Flag-tagged Rap1A and full-length EPAC1 or EPAC2 are proposed. HEK293 cells express minimal endogenous levels of EPAC1 and EPAC2 and have been used as host cells for evaluating the cellular activities of ectopically expressed EPAC proteins in an isoform-specific manner. Activation of EPAC1 or EPAC2 in these cell lines by cAMP elevating agents leads to the accumulation of Flag-Rap1-GTP, which can be captured by RalGDS-RBD immobilized in a nickel-coated 96-well microplate. The levels of active Flag-Rap1-GTP protein can be quantitatively monitored using a specific anti-FLAG antibody and a HRP conjugated secondary antibody in a manner similar to that of a conventional ELISA assay (Fig. 1).
HEK293 (ATCC) cells were grown in MEM medium supplemented with 10% heat-inactivated FBS (Invitrogen), at 37 °C, 5% CO2. HEK293 stable cell lines expressing Flag-tagged human Rap1A (Flag-hRap1A) alone and co-expressing human EPAC1 (hEPAC1) and Flag-hRap1A or mouse EPAC2 (mEPAC2) and Flag-hRap1A were established by sequential transfections using Lipofectamine 2000 reagent (Invitrogen) with mammalian expression vectors, first with pIRES2-EGFP containing Flag-hRap1A and followed by pIRES‐hyg2 containing hEPAC1 or mEPAC2. Individual stable cell clones were selected and maintained in MEM containing 500 µg/ml G418 for pIRES2-EGFP and 100 µg/ml hygromycin B for pIRES‐hyg2, respectively.
HEK293 cells co-expressing hEPAC1/Flag-tagged hRap1A or mEPAC2/Flag-tagged hRap1A were seeded in 12-well plates (Corning #3513) at an initial confluency of 400,000 cell/well and incubate at 37 °C, 5% CO2, in MEM medium with 10% FBS, for 24 hours. Cells were then rinsed with HBSS and cultured in FBS-free MEM medium for another 16 hours. If necessary cells were first pretreated with various concentration of antagonists or vehicle at 37 °C for 30 min. Otherwise, the cells were stimulated with various concentrations of agonists or vehicle controls at 37 °C for 10 min, then immediately rinsed with ice-cold PBS and lysed in 500 µl ice-cold lysis buffer containing 20 mM Tris-HCl, pH 7.4, 150 mM NaCl, 10 mM MgCl2, 1% IGEPAL CA-630 and proteinase inhibitors cocktail. Cell extracts were clarified by centrifugation at 18,000 RCF for 20 min and their protein concentrations were determined by DC protein assay kit. 100 µl of properly diluted cell lysates containing 0 to 50 µg total proteins were added to nickel coated 96-well plate strips that were pre-coated with 200 µg of RalGDS-RBD-His6 proteins and incubated at 4 °C for 2 hours with gentle rocking. After washing with 100 µl ice-cold ELISA buffer (20 mM Tris-HCl, pH 7.4, 150 mM NaCl, 10 mM MgCl2 and 0.1% Tween-20) for 3 times, 100 µl mouse anti-Flag antibody (1:5000 in ELISA buffer) was added into each well and incubated at 4 °C for 1 hour with gentle shaking. Following three washes with 100 µl ice-cold ELISA buffer, 100 µl anti-mouse HRP-conjugated antibodies (1:3000 in ELISA buffer) were added into each well. After incubation at room temperature for 1 hour with gentle shaking, the wells were washed three times with 100 µl ELISA buffer. 200 µl of OPD substrate was added into each well and absorbance signal at 450 nm was monitored using an M2 microplate reader (Molecular Devices) for 30 min with 1-min intervals. 10-min data points were used for quantification.
(ELISA stands for enzyme-linked immunosorbent assay.)

For assay [2], the target named is T2, EPAC2 (Mus musculus, UniProt Q9EQZ6).
T2 construct: HEK293 cell lines stably expressing Flag-tagged Rap1A and full-length EPAC1 or EPAC2 are proposed; expressed in transfected cells
T2 sequence (Q9EQZ6 1-1011): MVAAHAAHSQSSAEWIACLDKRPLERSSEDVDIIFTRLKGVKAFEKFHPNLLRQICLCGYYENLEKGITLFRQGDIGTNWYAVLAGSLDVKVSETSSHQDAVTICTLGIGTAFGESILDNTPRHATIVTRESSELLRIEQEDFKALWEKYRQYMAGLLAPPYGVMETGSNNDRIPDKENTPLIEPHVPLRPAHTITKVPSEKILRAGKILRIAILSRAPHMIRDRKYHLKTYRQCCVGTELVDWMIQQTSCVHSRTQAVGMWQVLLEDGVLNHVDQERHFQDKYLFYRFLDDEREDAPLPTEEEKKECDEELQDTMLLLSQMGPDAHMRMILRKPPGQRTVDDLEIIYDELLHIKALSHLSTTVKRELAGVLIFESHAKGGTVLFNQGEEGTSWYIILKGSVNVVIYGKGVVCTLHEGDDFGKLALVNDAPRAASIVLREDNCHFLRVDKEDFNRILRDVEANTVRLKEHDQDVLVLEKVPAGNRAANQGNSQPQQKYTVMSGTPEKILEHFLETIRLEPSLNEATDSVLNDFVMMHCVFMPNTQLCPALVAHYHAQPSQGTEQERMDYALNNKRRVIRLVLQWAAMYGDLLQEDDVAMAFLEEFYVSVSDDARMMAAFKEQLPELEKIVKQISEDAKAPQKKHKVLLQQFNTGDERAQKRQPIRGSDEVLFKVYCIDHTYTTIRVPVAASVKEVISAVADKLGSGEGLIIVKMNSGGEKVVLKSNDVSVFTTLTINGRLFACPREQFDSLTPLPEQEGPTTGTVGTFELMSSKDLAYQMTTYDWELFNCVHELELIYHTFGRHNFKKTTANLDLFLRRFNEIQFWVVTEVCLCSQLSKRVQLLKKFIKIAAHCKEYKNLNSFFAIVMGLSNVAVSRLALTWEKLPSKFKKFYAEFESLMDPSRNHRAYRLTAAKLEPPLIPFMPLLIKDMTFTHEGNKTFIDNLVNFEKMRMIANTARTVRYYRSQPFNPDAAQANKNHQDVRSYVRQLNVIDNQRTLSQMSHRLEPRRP
The assay is described as follows: Cellular Rap1 assay (ELISA for Rap1-GTP) in HEK293/mEPAC2/Flag-Rap1 cells. The class given is cell-based.
Experimental: HEK293 cells co-expressing hEPAC1/Flag-tagged hRap1A or mEPAC2/Flag-tagged hRap1A were seeded in 12-well plates (Corning #3513) at an initial confluency of 400,000 cell/well and incubate at 37 °C, 5% CO2, in MEM medium with 10% FBS, for 24 hours. Cells were then rinsed with HBSS and cultured in FBS-free MEM medium for another 16 hours. If necessary cells were first pretreated with various concentration of antagonists or vehicle at 37 °C for 30 min. Otherwise, the cells were stimulated with various concentrations of agonists or vehicle controls at 37 °C for 10 min, then immediately rinsed with ice-cold PBS and lysed in 500 µl ice-cold lysis buffer containing 20 mM Tris-HCl, pH 7.4, 150 mM NaCl, 10 mM MgCl2, 1% IGEPAL CA-630 and proteinase inhibitors cocktail. Cell extracts were clarified by centrifugation at 18,000 RCF for 20 min and their protein concentrations were determined by DC protein assay kit. […] 200 µl of OPD substrate was added into each well and absorbance signal at 450 nm was monitored using an M2 microplate reader (Molecular Devices) for 30 min with 1-min intervals. 10-min data points were used for quantification.

The subject of assay [3] is EPAC2. On the set-up: method as in PMID 23091014, PMID 23286832. To be noted: in the presence of 20 µM cAMP; selective for EPAC2, not EPAC1; cited from earlier work.
For assay [4], the target named is T1, EPAC1. The experiment in a line: Conventional affinity pull-down assay of Rap1-GTP using GST-RalGDS-RBD, immunoblot. Format: cell-based. To be noted: HEK293/hEPAC1/Flag-Rap1 cells, various concentrations. The text has this:
Forskolin is a labdane diterpene natural product, commonly used a biochemical tool to stimulate intracellular levels of cAMP[31]. Treatment of HEK293/hEPAC1/Flag-Rap1 or HEK293/mEPAC2/ Flag-Rap1 cells with forskolin led to a dose-dependent increase in Rap1-GTP levels in both cell lines (Fig. 3A,B). […] Since forskolin-mediated increase in intracellular cAMP activates both EPAC and PKA, to ensure that the signals observed in our assay were not in part due to the activation of PKA, control experiments in the presence of a PKA-specific inhibitor, H89, were performed.
Figure S1. Dose-dependent cellular activation of EPAC1 by forskolin. Relative Rap1-GTP levels, as monitored by affinity pull-down assay using GST-RalGDS-RBD, in HEK293 cells overexpressing EPAC1 stimulated by various concentrations of forskolin. Inset: representative immunoblot image of Rap1-GTP levels under basal and forskolin-stimulated conditions.
In general terms: A western blot detects proteins with antibodies after separation by electrophoresis.

Consider `CO[C@@H]1[C@@H]2OP(=O)(OCOC(C)=O)OC[C@H]2O[C@H]1n1c(Sc2ccc(Cl)cc2)nc2c(N)ncnc21` (stereo partly shown) [007-AM, 8-pCPT-2-O-Me-cAMP-AM], for which the half-maximal activity concentration (AC50) in assay [1] (HEK293/hEPAC1/Flag-Rap1 cells) turned out to be 16.5 ± 3.1 nM. Also, the “dose-dependent activation of EPAC2 (Rap1-GTP levels)” value in assay [2] (up to 10 µM) is recorded as “did not reach plateau”.

With `Cc1ccc(S(=O)(=O)c2c(C)cc(C)cc2C)cc1` [ESI-05], in assay [1] (stimulated by 1 µM Forskolin, HEK293/hEPAC1/Flag-Rap1 cells), the “inhibition of cellular EPAC1 activation” value was “no detectable activity”. For the same molecule, the “potency of EPAC2 inhibition” value in assay [3] is on record as “sub-micromolar”.

Regarding `C=C[C@@]1(C)CC(=O)[C@]2(O)[C@@]3(C)[C@@H](O)CCC(C)(C)[C@@H]3[C@H](O)[C@H](OC(C)=O)[C@@]2(C)O1` [Forskolin], the AC50 in assay [1] (HEK293/hEPAC1/Flag-Rap1 cells) was determined as 226 ± 57 nM; in assay [2] (10 min stimulation, read-out: apparent half maximal activation constant (AC50), Rap1-GTP levels), 137 ± 36 nM. The “activation of Rap1 (relative Rap1-GTP levels, pull-down)” value in assay [4] is “dose-dependent activation”.

Regarding `O=S(=O)(NCCNC/C=C/c1ccc(Br)cc1)c1cccc2cnccc12` [H89], in assay [1] (10 µM H89, HEK293 cells overexpressing EPAC1 (Fig. S2)), the “effects on basal and forskolin-induced Rap1 activities” value was “minimal”.

In the case of `CC(C)(C)c1cc(C(=O)/C(C#N)=N/Nc2cc(Cl)c(Cl)c(Cl)c2)no1` [NY-0123], the IC50 came out at 4900 ± 600 nM in assay [1] (stimulated by 1 µM Forskolin, 30 min pretreatment, HEK293/hEPAC1/Flag-Rap1 cells, read-out: apparent IC50, inhibition of cellular EPAC1 activity) and 9600 ± 1600 nM in assay [2] (stimulated by 1 µM Forskolin, 30 min pretreatment, read-out: apparent IC50, inhibition of cellular EPAC2 activity).
